The format of this series is in vitro ADME. The note with it: PAMPA. An excerpt:
Topics Med. Chem. 2001, 1, 277-351.
(In PAMPA a lipid-coated filter parts donor from acceptor wells.)

As usually defined, the Papp is the rate of passage across a membrane or cell layer, normalised by area and donor concentration. A low value points to slow passage.

Read-outs that look alike come from different tables or passages of the source.

In the case of `Cc1nccn1CC1CCc2c(c3ccccc3n2C)C1=O.Cl` (stereo not drawn) [Ondansetron HCl, ondansetron HCl], the Papp runs as follows: (pH 5.4) 0.32 ×10⁻⁶ cm/s; (pH 7.4) 1.3 ×10⁻⁶ cm/s; (pH 8.5) 3.25 ×10⁻⁶ cm/s.

The values above are taken from patent publication US20080213363A1, “Methods and compositions for delivering 5-HT3 antagonists across the oral mucosa” (priority 2003, published 2008).
